Measured values taken from patent US6211170A, “Azetidinone derivatives for the treatment of HCMV infections” (Boehringer Ingelheim (Canada) Ltd., priority 1998, dated 2001).
Like-named read-outs stand apart in the source and are kept apart here.

Columns and labels:
[1] = target: T1, HCMV NO protease (Human cytomegalovirus, UniProt P16753); assay: HCMV NO Protease Assay (fluorogenic substrate cleavage); type: biochemical; conditions: HCMV NO protease 100 nM, substrate 5 μM, pH 8, 2.5 h at 30°
T1 construct: HCMV NO protease
T1 sequence (P16753 1-256): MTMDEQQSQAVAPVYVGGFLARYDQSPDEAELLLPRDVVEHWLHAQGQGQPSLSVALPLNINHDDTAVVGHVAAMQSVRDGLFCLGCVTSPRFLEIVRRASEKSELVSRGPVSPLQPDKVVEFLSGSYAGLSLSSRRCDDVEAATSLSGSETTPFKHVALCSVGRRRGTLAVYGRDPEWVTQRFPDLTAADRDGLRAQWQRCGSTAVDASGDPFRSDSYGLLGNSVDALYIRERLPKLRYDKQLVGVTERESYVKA
Experimental: This particular assay determines the ability of a test compound to inhibit the activity (IC50) of HCMV protease. More specifically, in the assay described herein, the inhibitory activity of the test compound is evaluated on the basis of its ability to interfere with the HCMV NO protease cleavage of a fluorogenic peptide substrate which in turn is based on the maturation cleavage site of the enzyme.
1. HCMV NO Protease Assay
Material & Methods: Fluorescence measurements were recorded on a Perkin-Elmer LS-50B spectrofluorimeter equipped with a plate reader accessory. UV measurements were recorded on a Thermomax® microplate reader from Molecular Devices Corporation, Menlo Park, Calif., USA.
HCMV NO protease was assayed with an internally quenched fluorogenic substrate based on the maturation cleavage site (Abz-[…](3-NO2)R--OH, kcat /KM =260 M^-1 s^-1). The fluorescence increase upon cleavage of the Ala-Ser amide bond was monitored using excitation λ=312 nm (slit 2.5 nm) and emission λ=415 nm (slit 5 nm). A protocol adaptable to a 96-well plate format was designed for the determination of IC50 values of inhibitors.
After this period, enzymatic hydrolysis of the fluorogenic substrate in the absence of inhibitor led to about a 30% conversion. Quenching was not required before fluorescence measurement since the total scanning time by the plate reader accessory was brief relative to the duration of the reaction. The aqueous incubation buffer contained 50 mM tris(hydroxymethyl)aminomethane.HCl pH 8, 0.5M Na2 SO4, 50 mM NaCl, 0.1 mM EDTA, 1 mM tris(2-carboxyethyl)phosphine.HCl, 3% v/v DMSO and 0.05% w/v casein. The final concentrations of HCMV NO protease (expressed in terms of total monomer concentration) and substrate were 100 nM and 5 μM respectively. IC50 values were obtained through fitting of the inhibition curve to a competitive inhibition model using SAS NLIN procedure. The mode of inhibition was determined by measurements of the initial rates (in cuvettes) at various substrate concentrations in the buffer as described above. The IC50 values listed in the following tables were obtained according to this assay.

[2] = test system: HCMV (strain AD169, ATCC VR-538); assay: Plaque Reduction Assay (PRA) in HCMV-infected Hs-68 cells; type: cell-based, human cytomegalovirus (HCMV)
Experimental: B. Plaque Reduction Assay (PRA):
Hs-68 cells (ATCC # CRL 1635) were seeded in 12-well plates at 83,000 cells/well in 1 mL of DMEM medium (Gibco Canada Inc.) supplemented with 10% fetal bovine serum (FBS, Gibco Canada Inc.). The plates were incubated for 3 days at 37° to allow the cells to reach 80-90% confluency prior to the assay.
The medium was removed from the cells by aspiration. The cells were then infected with approximately 50 PFU of HCMV (strain AD169, ATCC VR-538) in DMEM medium supplemented with 5% inactivated FBS (assay medium). (DMEM medium is commercially available and has been described by R. Dulbecco et al., Virology 1959, 8, 396.) The virus was allowed to adsorb to cells for 2 h at 37°. Following viral adsorption, the medium was removed from the wells by aspiration. The cells were then incubated with or without 1 mL of appropriate concentrations of test reagent in assay medium. Occasionally, test compounds were added 24 h post-infection. After 4 days of incubation at 37°, the medium was exchanged with fresh medium containing test compound and 4 days later the cells were fixed with 1% aqueous formaldehyde and stained with a 2% violet solution in 20% ethanol in water. Microscopic plaques were counted using a stereomicroscope. Drug effects were calculated as a percent reduction in the number of plaques in the presence of each drug concentration compared to the number observed in the absence of drug. Ganciclovir was used as a positive control in all experiments.

[3] = Cytotoxicity, tetrazolium salt (MTT) metabolic assay; type: cell-based; conditions: cytotoxic effects, read-out: TC50 (the source's name)
Experimental: Cytotoxic effects noted as TC50 in the following tables were determined according to the tetrazolium salt (MTT) metabolic assay, F. Denizot and F. Lang, J. Immun. Meth., 1986, 89, 271.

[4] = Human betaherpesvirus 5, Hs68, 192 h, plaque reduction, HCMV strain AD169, Hs-68 cells, 8 days, read-out: EC50
[5] = Human betaherpesvirus 5, AD169, Hs68, 192 h

SMILES	IC50 [1] [µM]	EC50 [2, 4] [µM]	CC50 [3] [µM]	EC50 [2, 5] [µM]
CC[C@@H](NC(=O)N1C(=O)C[C@@H]1[C@@H](C)Sc1ncccn1)c1ccccc1 [Entry 209, 2-oxo-4(R)-[1(R)-(pyrimidin-2-ylsulfanyl)ethyl]azetidine-1-carboxylic acid (1(R)-phenylpropyl)amide]	3.4	80	> 168	–
CC[C@@H](NC(=O)N1C(=O)[C@@H](C)[C@@H]1CSc1ccccn1)c1ccccc1 [Entry 108]	1.2	180	> 250	–
CC[C@@H](NC(=O)N1C(=O)C[C@@H]1CSc1nc2ccccc2o1)c1ccccc1 [Entry 141]	0.8	–	> 26	22
CC[C@@H](NC(=O)N1C(=O)C[C@@H]1CSc1ncccn1)c1ccccc1 [Entry 104, 2-oxo-4(R)-(pyrimidin-2-ylsulfanylmethyl)azetidine-1-carboxylic acid (1(R)-phenylpropyl)amide]	2.8	120	> 209	–
CC[C@@H](NC(=O)N1C(=O)C[C@@H]1CSc1nc(C)cc(C)n1)c1ccccc1 [Entry 105]	4.6	88	> 250	–
CC[C@@H](NC(=O)N1C(=O)C[C@@H]1COC(=O)c1cccc2ccccc12)c1ccccc1 [Entry 134]	0.46	–	> 13	9
CN(Cc1ccc(C(=O)OCc2ccccc2)cc1)C(=O)N1C(=O)C[C@@H]1CSc1ncccn1 [Entry 304]	2.5	120	> 250	–
CC[C@@H](NC(=O)N1C(=O)[C@@H](C)[C@@H]1CSc1nccn1C)c1ccccc1 [Entry 116]	1.9	130	> 250	–
CC[C@@H](NC(=O)N1C(=O)C[C@@H]1CSc1nc2ccccc2s1)c1ccccc1 [Entry 106]	3.3	> 250	> 250	–
CC[C@@H](NC(=O)N1C(=O)[C@@H](C)[C@@H]1CSc1nccc(C)n1)c1ccccc1 [Entry 123]	0.98	150	> 250	–
CC[C@@H](NC(=O)N1C(=O)C[C@@H]1CSC)c1ccccc1 [Entry 127, 4(R)-(methylsulfanyl)methyl-2-oxoazetidine-1-carboxylic acid (1(R)-phenylpropyl)amide]	3.8	> 250	> 250	–
CC[C@@H](NC(=O)N1C(=O)C[C@@H]1COC(=O)c1ccccc1)c1ccccc1 [Entry 145]	0.12	–	250	250
CC[C@@H](NC(=O)N1C(=O)C[C@@H]1CN(C)Cc1ccccc1)c1ccccc1 [Entry 137]	9.9	> 147	> 147	–
CC[C@@H](NC(=O)N1C(=O)[C@@H](C)[C@@H]1COc1ccccc1)c1ccccc1 [Entry 102]	2.7	> 250	> 250	–
CC[C@@H](NC(=O)N1C(=O)C[C@@H]1COc1ccccn1)c1ccccc1 [Entry 101]	8.4	55	151	–
CC[C@@H](NC(=O)N1C(=O)[C@@H](C)[C@@H]1CSc1nc2ccccc2s1)c1ccccc1 [Entry 109]	1.2	160	> 250	–

SMILES	IC50 [1] [µM]	EC50 [2, 4] [µM]	CC50 [3] [µM]	EC50 [2, 5] [µM]
CN(Cc1ccc(C(F)(F)F)cc1)C(=O)N1C(=O)C[C@@H]1CSc1ncccn1 [Entry 301]	1.7	95	> 250	–
CN(Cc1ccc(C(F)(F)F)cc1)C(=O)N1C(=O)C[C@@H]1CSc1ccncc1 [Entry 311]	0.6	250	> 250	–
COC(=O)c1ccc(CN(C)C(=O)N2C(=O)C[C@@H]2CSc2nccc(C)n2)cc1 [Entry 307]	3.5	105	> 250	–
CC[C@@H](NC(=O)N1C(=O)C[C@@H]1COc1ccccc1)c1ccccc1 [Entry 130]	5.2	101	> 250	–
CC[C@@H](NC(=O)N1C(=O)C[C@@H]1CS(=O)(=O)c1ccccc1)c1ccccc1 [Entry 144]	1.9	5	58	–
CC[C@@H](NC(=O)N1C(=O)C[C@@H]1[C@H](C)Sc1ncccn1)c1ccccc1 [Entry 208, 2-oxo-4(R)-[1(S)-(pyrimidin-2-ylsulfanyl)ethyl]-azetidine-1-carboxylic acid (1(R)-phenylpropyl)amide]	4.5	> 250	> 250	–
CN(Cc1ccc(C(F)(F)F)cc1)C(=O)N1C(=O)C[C@@H]1CSc1nnnn1C [Entry 320]	0.47	69	> 250	–
CC[C@@H](NC(=O)N1C(=O)[C@@H](C)[C@@H]1CSC1CCCCC1)c1ccccc1 [Entry 114]	3	> 250	> 250	–
CN(Cc1ccc(C#N)cc1)C(=O)N1C(=O)C[C@@H]1CSc1ncccn1 [Entry 312]	4.7	100	> 250	–
CN(Cc1ccc(C(F)(F)F)cc1)C(=O)N1C(=O)C[C@@H]1CSc1nccn1C [Entry 314]	5.5	> 250	> 250	–
O=C(NC[C@H]1CC(=O)N1C(=O)NCc1ccccc1)c1ccccc1 [Entry 204]	2.6	120	> 250	–
CC[C@@H](NC(=O)N1C(=O)[C@@H](C)[C@@H]1CSCC(C)C)c1ccccc1 [Entry 117]	3.5	110	> 250	–
CN(Cc1ccc(C(F)(F)F)cc1)C(=O)N1C(=O)C[C@@H]1CSc1nc2ccccc2o1 [Entry 319]	1.7	160	> 250	–
CC[C@@H](NC(=O)N1C(=O)C[C@@H]1CSc1ccccc1)c1ccccc1 [Entry 129]	2.5	> 250	> 250	–
CN(Cc1ccc(F)cc1)C(=O)N1C(=O)C[C@@H]1CSc1ncccn1 [Entry 313]	8.3	110	> 250	–
COC(=O)c1ccc(CN(C)C(=O)N2C(=O)C[C@@H]2CSc2ncccn2)cc1 [Entry 302]	3.9	170	> 250	–
